Experimental data published in PubChem BioAssay (NCI).
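96-well plates; 48 h exposure; 5 concentrations. Endpoints by linear interpolation between flanking doses. Not reached: highest tested concentration assigned. At the TGI there is no net growth.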

Columns and labels:
Test in all cases: NCI tumour cell line growth inhibition, 48 h
786-0 renal = test system: 786-0 renal
A498 renal = test system: A498 renal
A549 NSCLC = test system: A549 NSCLC
ACHN renal = test system: ACHN renal
BT-549 breast = test system: BT-549 breast
CAKI-1 renal = test system: CAKI-1 renal
CCRF-CEM leukemia = test system: CCRF-CEM leukemia
COLO 205 colon = test system: COLO 205 colon
DU-145 prostate = test system: DU-145 prostate
EKVX NSCLC = test system: EKVX NSCLC
HCC-2998 colon = test system: HCC-2998 colon
HCT-116 colon = test system: HCT-116 colon
HCT-15 colon = test system: HCT-15 colon
HOP-62 NSCLC = test system: HOP-62 NSCLC
HOP-92 NSCLC = test system: HOP-92 NSCLC
HT29 colon = test system: HT29 colon
IGROV1 ovarian = test system: IGROV1 ovarian
K-562 leukemia = test system: K-562 leukemia
KM12 colon = test system: KM12 colon
LOX IMVI melanoma = test system: LOX IMVI melanoma
M14 melanoma = test system: M14 melanoma
MALME-3M melanoma = test system: MALME-3M melanoma
MCF7 breast = test system: MCF7 breast
MDA-MB-231 breast = test system: MDA-MB-231 breast
MDA-MB-435 = test system: MDA-MB-435
MDA-N = test system: MDA-N
MOLT-4 leukemia = test system: MOLT-4 leukemia
NCI-H226 lung = test system: NCI-H226 lung
NCI-H23 lung = test system: NCI-H23 lung
NCI-H460 lung = test system: NCI-H460 lung
NCI-H522 lung = test system: NCI-H522 lung
NCI/ADR-RES ovarian = test system: NCI/ADR-RES ovarian
OVCAR-3 ovarian = test system: OVCAR-3 ovarian
OVCAR-4 ovarian = test system: OVCAR-4 ovarian
OVCAR-5 ovarian = test system: OVCAR-5 ovarian
OVCAR-8 ovarian = test system: OVCAR-8 ovarian
PC-3 prostate = test system: PC-3 prostate
RPMI-8226 leukemia = test system: RPMI-8226 leukemia
RXF 393 renal = test system: RXF 393 renal
SF-268 CNS = test system: SF-268 CNS
SF-295 CNS = test system: SF-295 CNS
SK-MEL-2 melanoma = test system: SK-MEL-2 melanoma
SK-MEL-28 melanoma = test system: SK-MEL-28 melanoma
SK-MEL-5 melanoma = test system: SK-MEL-5 melanoma
SK-OV-3 ovarian = test system: SK-OV-3 ovarian
SN12C renal = test system: SN12C renal
SNB-19 CNS = test system: SNB-19 CNS
SNB-75 CNS = test system: SNB-75 CNS
SR leukemia = test system: SR leukemia
SW-620 colon = test system: SW-620 colon
T-47D breast = test system: T-47D breast
TK-10 renal = test system: TK-10 renal
U251 CNS = test system: U251 CNS
UACC-257 melanoma = test system: UACC-257 melanoma
UO-31 renal = test system: UO-31 renal
HL-60(TB) leukemia = test system: HL-60(TB) leukemia
HS 578T breast = test system: HS 578T breast
SF-539 CNS = test system: SF-539 CNS
UACC-62 melanoma = test system: UACC-62 melanoma

## CC(C)(C)OC(=O)NCCCCCCC(=O)Cc1ccccc1
786-0 renal
  TGI: > 100 µM
A498 renal
  TGI: > 100 µM
A549 NSCLC
  TGI: > 100 µM
ACHN renal
  TGI: > 100 µM
BT-549 breast
  TGI: > 100 µM
CAKI-1 renal
  TGI: > 100 µM
CCRF-CEM leukemia
  TGI: > 100 µM
COLO 205 colon
  TGI: > 100 µM
DU-145 prostate
  TGI: > 100 µM
EKVX NSCLC
  TGI: > 100 µM
HCC-2998 colon
  TGI: > 100 µM
HCT-116 colon
  TGI: > 100 µM
HCT-15 colon
  TGI: > 100 µM
HOP-62 NSCLC
  TGI: > 100 µM
HOP-92 NSCLC
  TGI: > 100 µM
HT29 colon
  TGI: > 100 µM
IGROV1 ovarian
  TGI: > 100 µM
K-562 leukemia
  TGI: > 100 µM
KM12 colon
  TGI: > 100 µM
LOX IMVI melanoma
  TGI: > 100 µM
M14 melanoma
  TGI: > 100 µM
MALME-3M melanoma
  TGI: > 100 µM
MCF7 breast
  TGI: > 100 µM
MDA-MB-231 breast
  TGI: > 100 µM
MDA-MB-435
  TGI: > 100 µM
MDA-N
  TGI: > 100 µM
MOLT-4 leukemia
  TGI: > 100 µM
NCI-H226 lung
  TGI: > 100 µM
NCI-H23 lung
  TGI: > 100 µM
NCI-H460 lung
  TGI: > 100 µM
NCI-H522 lung
  TGI: > 100 µM
NCI/ADR-RES ovarian
  TGI: > 100 µM
OVCAR-3 ovarian
  TGI: > 100 µM
OVCAR-4 ovarian
  TGI: > 100 µM
OVCAR-5 ovarian
  TGI: > 100 µM
OVCAR-8 ovarian
  TGI: > 100 µM
PC-3 prostate
  TGI: > 100 µM
RPMI-8226 leukemia
  TGI: > 100 µM
RXF 393 renal
  TGI: > 100 µM
SF-268 CNS
  TGI: > 100 µM
SF-295 CNS
  TGI: > 100 µM
SK-MEL-2 melanoma
  TGI: > 100 µM
SK-MEL-28 melanoma
  TGI: > 100 µM
SK-MEL-5 melanoma
  TGI: > 100 µM
SK-OV-3 ovarian
  TGI: > 100 µM
SN12C renal
  TGI: > 100 µM
SNB-19 CNS
  TGI: > 100 µM
SNB-75 CNS
  TGI: > 100 µM
SR leukemia
  TGI: > 100 µM
SW-620 colon
  TGI: > 100 µM
T-47D breast
  TGI: > 100 µM
TK-10 renal
  TGI: > 100 µM
U251 CNS
  TGI: > 100 µM
UACC-257 melanoma
  TGI: > 100 µM
UO-31 renal
  TGI: > 100 µM

## C=CCCC1CCCCC/C1=N\N(C)C (stereo not drawn)
786-0 renal
  TGI: > 100 µM
A498 renal
  TGI: > 100 µM
A549 NSCLC
  TGI: > 100 µM
ACHN renal
  TGI: > 100 µM
CAKI-1 renal
  TGI: > 100 µM
CCRF-CEM leukemia
  TGI: > 100 µM
COLO 205 colon
  TGI: > 100 µM
DU-145 prostate
  TGI: > 100 µM
EKVX NSCLC
  TGI: > 100 µM
HCT-116 colon
  TGI: > 100 µM
HCT-15 colon
  TGI: > 100 µM
HL-60(TB) leukemia
  TGI: > 100 µM
HOP-62 NSCLC
  TGI: > 100 µM
HOP-92 NSCLC
  TGI: > 100 µM
HS 578T breast
  TGI: > 100 µM
HT29 colon
  TGI: > 100 µM
IGROV1 ovarian
  TGI: > 100 µM
K-562 leukemia
  TGI: > 100 µM
KM12 colon
  TGI: > 100 µM
LOX IMVI melanoma
  TGI: > 100 µM
M14 melanoma
  TGI: > 100 µM
MCF7 breast
  TGI: > 100 µM
MDA-MB-231 breast
  TGI: > 100 µM
MDA-MB-435
  TGI: > 100 µM
MDA-N
  TGI: > 100 µM
MOLT-4 leukemia
  TGI: > 100 µM
NCI-H226 lung
  TGI: > 100 µM
NCI-H23 lung
  TGI: > 100 µM
NCI-H460 lung
  TGI: > 100 µM
NCI-H522 lung
  TGI: > 100 µM
NCI/ADR-RES ovarian
  TGI: > 100 µM
OVCAR-3 ovarian
  TGI: > 100 µM
OVCAR-4 ovarian
  TGI: > 100 µM
OVCAR-5 ovarian
  TGI: > 100 µM
OVCAR-8 ovarian
  TGI: > 100 µM
PC-3 prostate
  TGI: > 100 µM
RPMI-8226 leukemia
  TGI: > 100 µM
SF-268 CNS
  TGI: > 100 µM
SF-295 CNS
  TGI: > 100 µM
SF-539 CNS
  TGI: > 100 µM
SK-MEL-2 melanoma
  TGI: > 100 µM
SK-MEL-28 melanoma
  TGI: > 100 µM
SK-MEL-5 melanoma
  TGI: > 100 µM
SK-OV-3 ovarian
  TGI: > 100 µM
SN12C renal
  TGI: > 100 µM
SNB-19 CNS
  TGI: > 100 µM
SNB-75 CNS
  TGI: > 100 µM
SR leukemia
  TGI: > 100 µM
SW-620 colon
  TGI: > 100 µM
T-47D breast
  TGI: > 100 µM
TK-10 renal
  TGI: > 100 µM
U251 CNS
  TGI: > 100 µM
UACC-257 melanoma
  TGI: > 100 µM
UACC-62 melanoma
  TGI: > 100 µM
UO-31 renal
  TGI: > 100 µM

## CN(C)CCCNC(=O)N/N=C\c1cccc2ccccc12
A498 renal
  TGI: > 10 µM
A549 NSCLC
  TGI: > 10 µM
ACHN renal
  TGI: > 10 µM
CCRF-CEM leukemia
  TGI: > 10 µM
COLO 205 colon
  TGI: > 10 µM
DU-145 prostate
  TGI: > 10 µM
EKVX NSCLC
  TGI: > 10 µM
HCC-2998 colon
  TGI: > 10 µM
HCT-116 colon
  TGI: > 10 µM
HCT-15 colon
  TGI: > 10 µM
HL-60(TB) leukemia
  TGI: > 10 µM
HOP-62 NSCLC
  TGI: > 10 µM
HOP-92 NSCLC
  TGI: > 10 µM
HS 578T breast
  TGI: > 10 µM
HT29 colon
  TGI: > 10 µM
IGROV1 ovarian
  TGI: > 10 µM
K-562 leukemia
  TGI: > 10 µM
KM12 colon
  TGI: > 10 µM
LOX IMVI melanoma
  TGI: > 10 µM
M14 melanoma
  TGI: > 10 µM
MALME-3M melanoma
  TGI: > 10 µM
MCF7 breast
  TGI: > 10 µM
MDA-MB-231 breast
  TGI: > 10 µM
MDA-N
  TGI: > 10 µM
MOLT-4 leukemia
  TGI: > 10 µM
NCI-H460 lung
  TGI: > 10 µM
NCI-H522 lung
  TGI: > 10 µM
NCI/ADR-RES ovarian
  TGI: > 10 µM
OVCAR-4 ovarian
  TGI: > 10 µM
OVCAR-5 ovarian
  TGI: > 10 µM
OVCAR-8 ovarian
  TGI: > 10 µM
PC-3 prostate
  TGI: > 10 µM
RPMI-8226 leukemia
  TGI: > 10 µM
RXF 393 renal
  TGI: > 10 µM
SF-268 CNS
  TGI: > 10 µM
SF-295 CNS
  TGI: > 10 µM
SF-539 CNS
  TGI: > 10 µM
SK-MEL-28 melanoma
  TGI: > 10 µM
SK-MEL-5 melanoma
  TGI: > 10 µM
SK-OV-3 ovarian
  TGI: > 10 µM
SN12C renal
  TGI: > 10 µM
SNB-75 CNS
  TGI: > 10 µM
SR leukemia
  TGI: > 10 µM
SW-620 colon
  TGI: > 10 µM
T-47D breast
  TGI: > 10 µM
TK-10 renal
  TGI: > 10 µM
UACC-62 melanoma
  TGI: > 10 µM
UO-31 renal
  TGI: > 10 µM
